Experimental data from article PMC9975698, “Hyperoside alleviates toxicity of β-amyloid via endoplasmic reticulum-mitochondrial calcium signal transduction cascade in APP/PS1 double transgenic Alzheimer's disease mice” (Redox Biology, 2023).
pKd: −log10 of the molar value.

How the values were obtained:
Aβ aggregates = target: T1, Aβ aggregates (Homo sapiens, UniProt P05067); assay: Biolayer interferometry (BLI) analysis; assay type: binding
T1 construct: purchased DGpeptites, Hangzhou, CHINA
Method: 200 μL of solution containing 200 μg of the Aβ peptide was incubated at 37 °C for 5 days. EZ-Link NHS-LC-LC-Biotin (Thermo Scientific, USA) was dissolved in DMSO to a concentration of 10 mM. Aβ aggregates was biotinylated in a 1:0.5 M ratio of biotin reagent and incubated for 30 min at room temperature before being added to a 96-well plate (Greiner Bio-One, PN:655,209). Biotinylation was ascertained by loading the mixture onto super streptavidin (SSA) capacity tips (ForteìBIO, CA, USA) and detected by the FortéBIO Octet Red instrument. Additionally, SSA biosensors were pre-wetted with PBS for the recording of baselines. Successful biotinylated Aβ aggregates solution was collected and immobilized onto SSA tips overnight at 4 °C. HYP dissolved in DMSO was diluted to an appropriate concentration with PBS to a final 200 μL/well volume. Control wells were added with an equal amount of DMSO. All experiments consisted of repeated cycles of four significant steps: wash (300 s), baseline (120 s), association (120 s), and dissociation (120 s). The association, dissociation plot, and kinetic constants were analyzed with ForteìBIO data analysis software.

APP/PS1 mice [1] = assay: Fear-conditioning test; assay type: in vivo; conditions: HYP nasal, every 3 days, 8 weeks
Method: All animal care and experimental procedures were performed in accordance with the “Institutional Animal Care and User Committee Guidelines” of the Macau University of Science and Technology. APP/PSEN1 (APP/PS1) mice (N000175) were purchased from the Nanjing Institute of Biomedical Sciences, Nanjing University, China, weighing 25 ± 5 g. The animals were housed in a temperature-controlled room with a 12 h light/dark cycle and given ad libitum food and water. Male mice were randomly divided into the following 6 experimental groups. (a) wild-type group (n = 6), (b) APP/PS1 group (n = 6), (c) HYP (20 mg/kg group) (n = 7), (d) HYP (40 mg/kg) group (n = 8), (e) HYP (80 mg/kg) group (n = 8) and (f) memantine (MEM) (10 mg/kg) positive control group (n = 8). HYP was dissolved in the solvent containing 10% DMSO, 40% PEG300 and 5% Tween-80 in PBS, and administrated via nasal injection for every 3 days with a volume of 0.5 μL/g of body weight for 8 consecutive weeks. The fear conditioning test measures the ability of mice to learn and remember associations between aversive experiences and the environment. On the first day of the fear conditioning test (Yuyan, Shanghai, China), mice were placed in a chamber for 5 min to acclimatize and explore. […] Responses were recorded with a video camera and scored for resting time, which was defined as the absence of any movement other than breathing.

APP/PS1 mice [2] = assay: Nissl staining of hippocampus; assay type: in vivo; conditions: hippocampus CA3 and DG, vs APP/PS1 control group
Method: All animal care and experimental procedures were performed in accordance with the “Institutional Animal Care and User Committee Guidelines” of the Macau University of Science and Technology. APP/PSEN1 (APP/PS1) mice (N000175) were purchased from the Nanjing Institute of Biomedical Sciences, Nanjing University, China, weighing 25 ± 5 g. The animals were housed in a temperature-controlled room with a 12 h light/dark cycle and given ad libitum food and water. Male mice were randomly divided into the following 6 experimental groups. (a) wild-type group (n = 6), (b) APP/PS1 group (n = 6), (c) HYP (20 mg/kg group) (n = 7), (d) HYP (40 mg/kg) group (n = 8), (e) HYP (80 mg/kg) group (n = 8) and (f) memantine (MEM) (10 mg/kg) positive control group (n = 8). HYP was dissolved in the solvent containing 10% DMSO, 40% PEG300 and 5% Tween-80 in PBS, and administrated via nasal injection for every 3 days with a volume of 0.5 μL/g of body weight for 8 consecutive weeks. The CA1, CA3 and DG regions of the mouse hippocampus was assessed by Nissl staining for Nissl body detection. Brain sections were dehydrated as the same as in HE staining, followed by 1% tar violet staining for 1 h, and with distilled water washing followed by 70% alcohol separation for 1 min. Tissues were then dehydrated in 70%, 80% and 90% of alcohol. […]

HT22 cells [3] = assay: Cytoplasmic calcium dynamics (FLIPR Calcium 6); assay type: cell-based
Method: Intracellular Ca^2+ dynamics were determined using the FLIPR Calcium 6 Assay Kit (Molecular Devices) according to the manufacturer's instructions. Briefly, HT22 was housed at 4 × 10^4 cells per well in a black-walled and clear-bottom 96 multi-well plate (Costar, MA, USA) and treated with Calcium 6 reagent for 1 h.

HT22 cells [4] = assay: ATP content measurement by LC-MS/MS; assay type: cell-based; conditions: Aβ aggregates with HYP 20, 40, 80 μM, 24 h
Method: HT22 cells were co-treated with Aβ aggregates and HYP (20–80 μM) for 24 h and washed with PBS. Each digested sample was re-suspended in 10 mL of ice-cold PBS, followed by centrifugation for 5 min (300 g, 4 °C). Cell pellets were then treated with 85% cold methanol (2 × 10^6 cells / 100 μL) containing 2 μM ATP-^13C10,^15N5, then vortexed for 1 min and placed on ice for 10 min. After centrifugation (13,000 g) at 4 °C for 15 min, the supernatant was transferred into another tube. The derivatization reaction was initiated by adding 75 μL of derivatization reagent MTBSTFA into 200 μL of cell lysis with 85% methanol and completed over 5 min with consistent vortex. Derivatization samples were then centrifuged (13,000 g) at 4 °C for 10 min, and 25 μL of the supernatant was injected into LC-MS/MS system for analysis.

HT22 cells [5] = assay: Western blot of Bcl-2, Bax and cyto-c in HT22 cells; assay type: cell-based; conditions: HT22 cells co-treated with Aβ aggregates 30 μM and HYP, 24 h
Method: After HYP treatment, the cells were lysed with RIPA. Protein concentrations were determined by Bio-Rad protein assay (Bio-Rad Laboratories, CA, USA). After electrophoretic separation, the gels were blotted and stained with primary antibodies. Binding of antibodies was visualized with peroxidase-coupled secondary antibodies using ECL Western Blotting detection reagents (Invitrogen, Scotland, UK). Band intensities were quantified using ImageJ software. Data were obtained from three independent experiments.

T1 sequence (P05067 672-713 limits assumed): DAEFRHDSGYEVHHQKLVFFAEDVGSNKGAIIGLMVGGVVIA

O=c1c(O[C@@H]2O[C@H](CO)[C@H](O)[C@H](O)[C@H]2O)c(-c2ccc(O)c(O)c2)oc2cc(O)cc(O)c12 [HYP, Quercetin-3-O-β-D-galactopyranoside]
Kids (Aβ aggregates; Fig. 1G, dissociation rate constant): 0.0343 s⁻¹ | pKd (Aβ aggregates; HYP 6.25–200 μM, biotinylated Aβ aggregate): 4.84 | freezing time in fear conditioning test (APP/PS1 mice [1]): significantly decreased the freezing time | density of neuronal cells (Nissl staining) (APP/PS1 mice [2]): density of neuronal cells in the CA3 and DG regions was higher | dynamic Ca2+ level induced by Aβ (HT22 cells [3]; HT22 cells, Aβ 30 μM + HYP 20–80 μM, calcium-containing HBSS): decreased the level of Ca^2+ in a dose dependent manner | dynamic Ca2+ level induced by Aβ (HT22 cells [3]; HT22 cells, Aβ 30 μM + HYP 20–80 μM, calcium-free HBSS): downregulated the Aβ -induced level of Ca^2+ in a dose-dependent manner | dynamic Ca2+ level induced by Aβ (HT22 cells [3]; si-RyR2 HT22 cells, aggregated Aβ 30 μM + HYP 40 μM): restored the Aβ-induced dishomeostasis of Ca^2+ in si-RyR2 HT22 cells (Fig. 9H) to a lesser extent | ATP content (HT22 cells [4]): rescued the Aβ-induced decrease in mitochondrial ATP | ratio of Bax / Bcl-2 and level of cyto-c (HT22 cells [5]): ratio of Bax / Bcl-2 was decreased with the reduction in the level of cyto-c
